Measurements published in patent US20240189389A1, “DRUG WITH PROLONGED ANALGESIC ACTION” (priority 2020, published 2024).

Key:
[1] = reduced only in part with repeated dosing; cited from earlier work
ICR male white mice = test: Formalin test on mice; type: in vivo; settings: oral, 100 mg/kg (positive control)
Method: Tests are performed on ICR male white mice of 20-30 g body weight. Mice are divided into 4 groups (a control one and experimental ones) of 9 mice each. The tested HCRG21 peptide is dissolved in a sterile physiological saline solution and is administered intramuscularly at the doses of 0.1 and 1.0 mg/kg. Control animals receive the equivalent volume of sterile physiological saline solution. Ibuprofen at the dose of 100 mg/kg is used as a positive control and is administered to animals orally. 60 minutes later all mice are injected in a hinder paw pad with 20 μl of 2.5% formalin solution. Patterns of pain response are recorded immediately after the injection (a number of paw licking episodes and a hind paw withdrawal time) according to the following schedule:
1st period (acute): for 20 min after the injection patterns are recorded per 1 min with 6-minute intervals (0, 6, 12 and 18 min);
2nd period (tonic): 30 min after the formalin injection patterns are recorded for 20 min per 1 min with 6-minute intervals (30, 36, 42, 48 min).
The analgesic effect is evaluated by the decrease of the duration of pain response patterns relative to control animals (FIG. 9). The results are statistically processed, statistical significance of differences of the results of control and experimental group is determined using the Student's test.

TRPV1 = target: T1, TRPV1 (Homo sapiens, UniProt Q8NER1); settings: high dose (400 mg); cited from earlier work
T1 construct: host or cells: human subjects (in vivo)
T1 sequence (Q8NER1 whole entry): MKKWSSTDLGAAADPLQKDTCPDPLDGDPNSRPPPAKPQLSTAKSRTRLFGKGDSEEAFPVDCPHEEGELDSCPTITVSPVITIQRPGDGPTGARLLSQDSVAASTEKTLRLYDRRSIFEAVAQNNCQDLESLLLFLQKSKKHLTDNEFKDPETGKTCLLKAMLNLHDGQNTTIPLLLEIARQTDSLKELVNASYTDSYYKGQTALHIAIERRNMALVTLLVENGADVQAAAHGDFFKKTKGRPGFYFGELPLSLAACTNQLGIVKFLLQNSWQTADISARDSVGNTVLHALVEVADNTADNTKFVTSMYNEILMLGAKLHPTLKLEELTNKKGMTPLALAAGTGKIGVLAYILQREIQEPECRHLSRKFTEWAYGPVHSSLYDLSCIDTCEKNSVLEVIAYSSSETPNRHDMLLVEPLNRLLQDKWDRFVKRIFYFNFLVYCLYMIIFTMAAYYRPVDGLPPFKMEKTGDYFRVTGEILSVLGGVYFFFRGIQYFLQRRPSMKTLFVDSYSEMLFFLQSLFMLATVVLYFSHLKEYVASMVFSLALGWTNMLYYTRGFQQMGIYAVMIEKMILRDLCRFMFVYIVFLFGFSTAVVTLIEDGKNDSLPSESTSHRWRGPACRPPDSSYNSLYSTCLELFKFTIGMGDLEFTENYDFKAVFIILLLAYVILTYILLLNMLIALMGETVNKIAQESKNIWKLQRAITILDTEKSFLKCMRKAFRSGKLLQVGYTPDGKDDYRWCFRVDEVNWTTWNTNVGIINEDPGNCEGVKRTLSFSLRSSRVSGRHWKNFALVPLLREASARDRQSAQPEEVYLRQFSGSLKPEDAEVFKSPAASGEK

[2] = phase I clinical trial data; cited from earlier work

For `CC(=O)Nc1nc2c(Oc3cc(-c4ccc(C(F)(F)F)cc4)ncn3)cccc2s1` [AMG-517], which “temperature increase in humans” value [1] is on record?
The value was “high and steady temperature increase”.

With `CC(C)Cc1ccc(C(C)C(=O)O)cc1` (stereo not shown) [Ibuprofen, ibuprofen] as the compound, how does the “analgesic properties compared with HCRG21” value (ICR male white mice) read?
The value was “concedes much to the HCRG21 peptide”.

Which “pharmacodynamic activity in the reduction of inflammation induced by heat injuries, UV radiation and capsaicin” value (TRPV1) does the source give for `O=C(Nc1ccccc1Br)N[C@@H]1CCN(c2ccc(C(F)(F)F)cn2)C1` [SB-705498] here?
Its value is “evidences a target pharmacodynamic activity”.

What about the elimination half-life [2] of the same compound?
Its elimination half-life is 35 to 93 h.
